In PubChem BioAssay AID2060511 (Molecular Pharmacology Branch, DTP, NCI, 2025):

System: 422866-222-R5-J1-PDC spheroids with HUVEC/MSC, viability
Assay: Anticancer human tumor 422866-222-R5-J1-PDC patient-derived pancreatic adenocarcinoma cell line growth inhibition [GQUAD]
Details: for IC50: curve of first compound; for viability, T/C: stronger effect = lower value
Procedure, shortened: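 Multi-cell-type spheroids of tumor cells with HUVEC and mesenchymal stem cells, treated with drug combinations. Concentrations descend in half-log steps from near clinical Cmax, or from 10 microM where Cmax is unknown; viability read-out.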

[1] = second compound 0.0316 µM, first compound 0.0316 µM
[2] = second compound 0.0316 µM, first compound 0.1 µM
[3] = second compound 0.0316 µM, first compound 0.316 µM
[4] = second compound 0.0316 µM, first compound 1 µM
[5] = second compound 0.0316 µM, first compound 3.16 µM
[6] = second compound 0.0316 µM, first compound 10 µM
[7] = second compound 0.1 µM, first compound 0.0316 µM
[8] = second compound 0.1 µM, first compound 0.1 µM
[9] = second compound 0.1 µM, first compound 0.316 µM
[10] = second compound 0.1 µM, first compound 1 µM
[11] = second compound 0.1 µM, first compound 3.16 µM
[12] = second compound 0.1 µM, first compound 10 µM
[13] = second compound 0.316 µM, first compound 0.0316 µM
[14] = second compound 0.316 µM, first compound 0.1 µM
[15] = second compound 0.316 µM, first compound 0.316 µM
[16] = second compound 0.316 µM, first compound 1 µM
[17] = second compound 0.316 µM, first compound 3.16 µM
[18] = second compound 0.316 µM, first compound 10 µM
[19] = second compound 1 µM, first compound 0.0316 µM
[20] = second compound 1 µM, first compound 0.1 µM
[21] = second compound 1 µM, first compound 0.316 µM
[22] = second compound 1 µM, first compound 1 µM
[23] = second compound 1 µM, first compound 3.16 µM
[24] = second compound 1 µM, first compound 10 µM
[25] = second compound 3.16 µM, first compound 0.0316 µM
[26] = second compound 3.16 µM, first compound 0.1 µM
[27] = second compound 3.16 µM, first compound 0.316 µM
[28] = second compound 3.16 µM, first compound 1 µM
[29] = second compound 3.16 µM, first compound 3.16 µM
[30] = second compound 3.16 µM, first compound 10 µM
[31] = second compound 10 µM, first compound 0.0316 µM
[32] = second compound 10 µM, first compound 0.1 µM
[33] = second compound 10 µM, first compound 0.316 µM
[34] = second compound 10 µM, first compound 1 µM
[35] = second compound 10 µM, first compound 3.16 µM
[36] = second compound 10 µM, first compound 10 µM
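Note: spheroids exposed to compounds for seven days before reading.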
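Throughout, for viability, T/C: percent viability relative to DMSO vehicle control taken as 100%.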

Q: How did the IC50 (second compound 0.0316 µM) turn out when `C=CC(=O)N1CCN(c2nc(=O)n(-c3c(C)ccnc3C(C)C)c3nc(-c4c(O)cccc4F)c(F)cc23)C(C)C1` (stereo unspecified) + Cc1[nH]c2ccc(F)cc2c1-c1nc2c3cccnc3c3ncccc3c2[nH]1 was run?
A: < 31.6 nM

Q: What about the IC50 (second compound 0.1 µM) of the same compound?
A: < 31.6 nM

Q: What about the IC50 (second compound 0.316 µM) of the same compound?
A: < 31.6 nM

Q: And the IC50 (second compound 1 µM)?
A: < 31.6 nM

Q: What about the IC50 (second compound 3.16 µM) of the same compound?
A: < 31.6 nM

Q: And the IC50 (second compound 10 µM)?
A: < 31.6 nM

Q: And the viability, T/C [1]?
A: 43.8%

Q: And the viability, T/C [2]?
A: 32.5%

Q: What about the viability, T/C [3] of the same compound?
A: 25.1%

Q: And the viability, T/C [4]?
A: 28.4%

Q: What about the viability, T/C [5] of the same compound?
A: 29.4%

Q: What about the viability, T/C [6] of the same compound?
A: 28.1%

Q: And the viability, T/C [7]?
A: 41.1%

Q: And the viability, T/C [8]?
A: 33.6%

Q: And the viability, T/C [9]?
A: 24.9%

Q: What about the viability, T/C [10] of the same compound?
A: 26.5%

Q: What about the viability, T/C [11] of the same compound?
A: 29.1%

Q: And the viability, T/C [12]?
A: 31.7%

Q: And the viability, T/C [13]?
A: 44.1%

Q: What about the viability, T/C [14] of the same compound?
A: 29.1%

Q: What about the viability, T/C [15] of the same compound?
A: 24.8%

Q: And the viability, T/C [16]?
A: 24.1%

Q: What about the viability, T/C [17] of the same compound?
A: 30.1%

Q: And the viability, T/C [18]?
A: 29.8%

Q: And the viability, T/C [19]?
A: 38.1%

Q: What about the viability, T/C [20] of the same compound?
A: 30.4%

Q: What about the viability, T/C [21] of the same compound?
A: 26.8%

Q: And the viability, T/C [22]?
A: 25.3%

Q: And the viability, T/C [23]?
A: 28%

Q: And the viability, T/C [24]?
A: 30.9%

Q: What about the viability, T/C [25] of the same compound?
A: 32.6%

Q: What about the viability, T/C [26] of the same compound?
A: 27.4%

Q: What about the viability, T/C [27] of the same compound?
A: 25.8%

Q: What about the viability, T/C [28] of the same compound?
A: 27.5%

Q: What about the viability, T/C [29] of the same compound?
A: 28.8%

Q: What about the viability, T/C [30] of the same compound?
A: 25.7%

Q: What about the viability, T/C [31] of the same compound?
A: 27.2%

Q: What about the viability, T/C [32] of the same compound?
A: 29.6%

Q: What about the viability, T/C [33] of the same compound?
A: 26.3%

Q: What about the viability, T/C [34] of the same compound?
A: 26.3%

Q: What about the viability, T/C [35] of the same compound?
A: 28.1%

Q: What about the viability, T/C [36] of the same compound?
A: 27.9%

Q: Which results are given for `CC[C@@]1(O)C(=O)OCc2c1cc1n(c2=O)Cc2cc3c(CN(C)C)c(O)ccc3nc2-1` + Cc1[nH]c2ccc(F)cc2c1-c1nc2c3cccnc3c3ncccc3c2[nH]1?
A: IC50 (second compound 0.0316 µM): 64.6 nM; IC50 (second compound 0.1 µM): 86.6 nM; IC50 (second compound 0.316 µM): 128 nM; IC50 (second compound 1 µM): 102 nM; IC50 (second compound 3.16 µM): 79.7 nM; IC50 (second compound 10 µM): 53 nM; viability, T/C (second compound 0.0316 µM, first compound 0.000999 µM): 92.9%; viability, T/C (second compound 0.0316 µM, first compound 0.00316 µM): 95.8%; viability, T/C (second compound 0.0316 µM, first compound 0.00999 µM): 92.8%; viability, T/C [1]: 56.9%; viability, T/C (second compound 0.0316 µM, first compound 0.0999 µM): 46.2%; viability, T/C [3]: 45.2%; viability, T/C (second compound 0.1 µM, first compound 0.000999 µM): 104%; viability, T/C (second compound 0.1 µM, first compound 0.00316 µM): 90.8%; viability, T/C (second compound 0.1 µM, first compound 0.00999 µM): 86.2%; viability, T/C [7]: 61.7%; viability, T/C (second compound 0.1 µM, first compound 0.0999 µM): 48.8%; viability, T/C [9]: 36.8%; viability, T/C (second compound 0.316 µM, first compound 0.000999 µM): 99.8%; viability, T/C (second compound 0.316 µM, first compound 0.00316 µM): 88.4%; viability, T/C (second compound 0.316 µM, first compound 0.00999 µM): 85.5%; viability, T/C [13]: 71.7%; viability, T/C (second compound 0.316 µM, first compound 0.0999 µM): 49.2%; viability, T/C [15]: 43.4%; viability, T/C (second compound 1 µM, first compound 0.000999 µM): 92.7%; viability, T/C (second compound 1 µM, first compound 0.00316 µM): 98.5%; viability, T/C (second compound 1 µM, first compound 0.00999 µM): 76.2%; viability, T/C [19]: 74.5%; viability, T/C (second compound 1 µM, first compound 0.0999 µM): 46.4%; viability, T/C [21]: 39.8%; viability, T/C (second compound 3.16 µM, first compound 0.000999 µM): 83.7%; viability, T/C (second compound 3.16 µM, first compound 0.00316 µM): 97.3%; viability, T/C (second compound 3.16 µM, first compound 0.00999 µM): 78.4%; viability, T/C [25]: 69.2%; viability, T/C (second compound 3.16 µM, first compound 0.0999 µM): 44.4%; viability, T/C [27]: 38%; viability, T/C (second compound 10 µM, first compound 0.000999 µM): 69.7%; viability, T/C (second compound 10 µM, first compound 0.00316 µM): 79.2%; viability, T/C (second compound 10 µM, first compound 0.00999 µM): 73.5%; viability, T/C [31]: 56.3%; viability, T/C (second compound 10 µM, first compound 0.0999 µM): 42.8%; viability, T/C [33]: 40.8%

Q: How did the IC50 (second compound 0.0316 µM) turn out when `COc1cc(C2c3cc4c(cc3C(OC3OC5COC(C)OC5C(O)C3O)C3COC(=O)C23)OCO4)cc(OC)c1O` (stereo unspecified) + Cc1[nH]c2ccc(F)cc2c1-c1nc2c3cccnc3c3ncccc3c2[nH]1 was run?
A: 1570 nM

Q: And the IC50 (second compound 0.1 µM)?
A: 835 nM

Q: And the IC50 (second compound 0.316 µM)?
A: 2050 nM

Q: What about the IC50 (second compound 1 µM) of the same compound?
A: 1920 nM

Q: What about the IC50 (second compound 3.16 µM) of the same compound?
A: 945 nM

Q: What about the IC50 (second compound 10 µM) of the same compound?
A: 2230 nM

Q: And the viability, T/C [1]?
A: 108%

Q: What about the viability, T/C [2] of the same compound?
A: 96.3%

Q: And the viability, T/C [3]?
A: 86.6%

Q: What about the viability, T/C [4] of the same compound?
A: 51.3%

Q: What about the viability, T/C [5] of the same compound?
A: 47.8%

Q: And the viability, T/C [6]?
A: 40.2%

Q: And the viability, T/C [7]?
A: 100%

Q: What about the viability, T/C [8] of the same compound?
A: 104%

Q: What about the viability, T/C [9] of the same compound?
A: 68.5%

Q: What about the viability, T/C [10] of the same compound?
A: 52%

Q: And the viability, T/C [11]?
A: 48.6%

Q: And the viability, T/C [12]?
A: 36.6%

Q: What about the viability, T/C [13] of the same compound?
A: 97.7%

Q: What about the viability, T/C [14] of the same compound?
A: 87.9%

Q: What about the viability, T/C [15] of the same compound?
A: 75.2%

Q: And the viability, T/C [16]?
A: 56.8%

Q: What about the viability, T/C [17] of the same compound?
A: 45.5%

Q: What about the viability, T/C [18] of the same compound?
A: 39.8%

Q: And the viability, T/C [19]?
A: 97.1%

Q: What about the viability, T/C [20] of the same compound?
A: 92.2%

Q: What about the viability, T/C [21] of the same compound?
A: 85.8%

Q: What about the viability, T/C [22] of the same compound?
A: 59.7%

Q: And the viability, T/C [23]?
A: 42.5%

Q: What about the viability, T/C [24] of the same compound?
A: 38.5%

Q: What about the viability, T/C [25] of the same compound?
A: 82.8%

Q: And the viability, T/C [26]?
A: 90.3%

Q: And the viability, T/C [27]?
A: 75.5%

Q: And the viability, T/C [28]?
A: 48.6%

Q: And the viability, T/C [29]?
A: 48.5%

Q: And the viability, T/C [30]?
A: 38.5%

Q: And the viability, T/C [31]?
A: 87.8%

Q: What about the viability, T/C [32] of the same compound?
A: 89.2%

Q: And the viability, T/C [33]?
A: 77.4%

Q: What about the viability, T/C [34] of the same compound?
A: 56.5%

Q: And the viability, T/C [35]?
A: 46.5%

Q: And the viability, T/C [36]?
A: 46.8%
